Laboratory results taken from patent US20240175863A1, “COMPOSITIONS AND METHODS FOR MONITORING ENPP1 ACTIVITY” (The Regents of University of Californa, priority 2021, published 2024).
Read-outs that look alike come from different tables or passages of the source.

Columns and labels:
cardiac fibroblasts [1] = experiment: myocyte conditioned medium transferred to cardiac fibroblasts, cell death (substance added to cardiomyocytes); type: cell-based, mouse; details: for cardiac fibroblast cell death by conditioned medium of cardiomyocytes treated with AMP plus inhibitor: inhibitor added to cardiomyocytes at the time of addition of AMP; for cardiac fibroblast cell death by conditioned medium of cardiomyocytes treated with the substance alone: conditioned medium collected after 24 hours
cardiac fibroblasts [2] = experiment: direct treatment of cardiac fibroblasts with metabolites or inhibitors, cell death and rescue; type: cell-based, mouse
[3] = system: ENPP1 over-expressing cardiac fibroblasts; experiment: co-culture of ENPP1 over-expressing cardiac fibroblasts with rodent ventricular cardiomyocytes plus ATP; type: cell-based, mouse
cardiac fibroblasts [4] = experiment: rescue of cardiac fibroblast cell death induced by ENPP1+ATP myocyte conditioned medium (substance added to fibroblasts); type: cell-based, mouse; details: for cell death of cardiac fibroblasts treated with ENPP1+ATP myocyte conditioned medium in presence of the substance: substance added to cardiac fibroblasts
Text: Unable to readily identity the pro-apoptotic metabolites, the studies sought alternative physiologic principles of approaching the problem. The data has consistently shown that the ENPP1+ATP myocyte conditioned medium caused death of a wide range of non-myocyte cells, but that myocytes themselves are not affected. This could be possibly secondary to a specific receptor that is present in non-myocytes and not in myocytes. However, as non-myocyte cells of different lineages are affected, it was hypothesized that the ability of myocytes to be immune to the conditioned medium likely reflects an inherent cellular property of myocytes that distinguishes itself from that in non-myocyte cells tested by us. As non-myocytes are proliferative and myocytes are non-proliferative, it was hypothesized that the ability to cycle was making the non-myocytes susceptible to the metabolites secreted by the myocyte. To determine whether this was true, the studies harvested primary cardiac fibroblasts and induced cell cycle arrest of freshly harvested cardiac fibroblasts by irradiating them.
It also provided an obvious explanation as to why non-proliferative myocytes are immune to the effects of the metabolite(s). A nucleotide balance between the content of purines and pyrimidines available to cycling cells is critical to avoid genotoxic stress and maintain genomic stability. It was hypothesized that disruption of the nucleotide biosynthetic pathways in non-myocyte cells and an imbalance of purine versus pyrimidine nucleotides was inducing genotoxic stress and initiating a DNA damage response in proliferating non-myocytes. The studies treated cardiac fibroblasts with ENPP1+ATP myocyte conditioned medium for 24 hours and measured the content of nucleoside monophosphate and nucleoside triphosphates in treated cardiac fibroblasts by LC/MS-MS. […] To determine whether this is true, the studies attempted to rescue cell death of cardiac fibroblasts by adding uridine or deoxycytidine to the ENPP1+ATP myocyte conditioned medium. Cardiac fibroblasts were treated with the ENPP1+ATP myocyte conditioned medium but uridine or deoxycytidine or both were added to the cardiac fibroblasts at the time of addition of ENPP1+ATP myocyte conditioned medium (FIG. 5C). […] Deoxycytidine serves as a precursor of dCTP synthesis via the enzyme deoxycytidine kinase.
Pyrimidine biosynthesis occurs via a sequence of well-regulated steps (FIG. 5H), where carbamoyl phosphate is converted to carbamoyl aspartate and then to dihydroorotate. Dihydroorotate dehydrogenase (DHODH) then converts dihydroorotate to the pyrimidine orotate. In the presence of phosphoribosyl pyrophosphate (PRPP), orotate is converted by phosphoribosyl transferase activity of UMP synthase to orotidine monophosphate (OMP) and then decarboxylated by OMP decarboxylase activity of UMP synthase to uridine monophosphate (UMP). To determine which steps in pyrimidine biosynthesis are affected in cycling non-myocytes, the studies treated cardiac fibroblasts with ENPP1+ATP myocyte conditioned medium and 24 hours later harvested the cells and subjected the cardiac fibroblasts to mass spectrometry to determine metabolites in the pyrimidine biosynthesis pathway. […] As orotate levels were increased but orotidine levels decreased in cardiac fibroblasts treated with ENPP1+ATP myocyte conditioned medium, it was hypothesized that inhibition was occurring at the OMP synthesis step from orotate and PRPP (orotate phosphoribosyl transferase). […]

[5] = system: primary mouse embryonic fibroblasts (mEF); experiment: mouse embryonic fibroblasts treated with ENPP1+ATP myocyte conditioned medium, cell death; type: cell-based
[6] = system: C57BL/6 animals subjected to ischemic cardiac injury
ENPP1 = biological target: T1, ENPP1 (UniProt P22413); experiment: cell free luciferase based luminescent assay for ENPP1 inhibitors; type: biochemical
T1 sequence (P22413 1-925): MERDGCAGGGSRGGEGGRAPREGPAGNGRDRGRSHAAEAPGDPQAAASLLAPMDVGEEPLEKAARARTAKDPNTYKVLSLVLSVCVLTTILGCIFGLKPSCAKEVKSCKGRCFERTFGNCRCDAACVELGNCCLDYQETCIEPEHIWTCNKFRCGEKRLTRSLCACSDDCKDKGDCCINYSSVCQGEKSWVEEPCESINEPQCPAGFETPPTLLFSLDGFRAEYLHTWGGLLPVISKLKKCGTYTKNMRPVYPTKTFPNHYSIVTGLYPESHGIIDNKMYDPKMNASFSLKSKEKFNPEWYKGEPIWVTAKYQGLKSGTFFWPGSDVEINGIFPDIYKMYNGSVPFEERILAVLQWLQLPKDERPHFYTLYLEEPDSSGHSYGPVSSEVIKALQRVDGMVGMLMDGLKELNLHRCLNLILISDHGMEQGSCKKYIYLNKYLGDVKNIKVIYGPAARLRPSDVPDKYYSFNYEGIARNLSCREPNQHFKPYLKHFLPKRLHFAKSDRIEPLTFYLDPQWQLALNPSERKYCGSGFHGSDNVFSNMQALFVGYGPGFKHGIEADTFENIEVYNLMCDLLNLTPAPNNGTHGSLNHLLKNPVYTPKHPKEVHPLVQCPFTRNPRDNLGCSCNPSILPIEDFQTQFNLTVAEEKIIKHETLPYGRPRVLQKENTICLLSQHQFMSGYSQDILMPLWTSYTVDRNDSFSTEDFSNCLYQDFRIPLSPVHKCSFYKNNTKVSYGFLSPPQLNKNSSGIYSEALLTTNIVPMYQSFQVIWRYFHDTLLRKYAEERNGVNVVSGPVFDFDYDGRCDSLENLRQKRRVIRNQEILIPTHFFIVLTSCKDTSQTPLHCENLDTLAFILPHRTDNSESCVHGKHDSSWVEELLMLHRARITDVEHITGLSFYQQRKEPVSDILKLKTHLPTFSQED

pyrimidine biosynthesis = experiment: metabolomic analysis of hearts and serum after cardiac injury; type: in vivo, mouse
[7] = system: gamma H2A.X and p53Ser15 phosphorylation in non-myocyte cells; experiment: immunostaining of DNA damage response in non-myocyte cells of injured hearts; type: in vivo, mouse; details: hearts of myricetin treated animals
[8] = 30 mg/kg myricetin intra-peritoneally daily for 14 days
[9] = 30 mg/kg myricetin intra-peritoneally daily for 14 days, day 7 after injury, n=15
[10] = myricetin versus vehicle treated injured hearts
[11] = myricetin versus vehicle, day 3
[12] = uridine continuous infusion for 14 days
[13] = uridine continuous infusion for 14 days, day 7 after injury, mean±S.E.M., n=15

In the case of `C[C@H](Nc1cc(Cl)nc2c1cnn2[C@@H]1O[C@H](COP(=O)(O)CP(=O)(O)O)[C@@H](O)[C@H]1O)c1ccccc1F` [AB680], the “cardiac fibroblast cell death by conditioned medium of cardiomyocytes treated with AMP plus inhibitor” value (cardiac fibroblasts [1]) is reported as “significantly increases cardiac fibroblast cell death”.

With `Nc1ncnc2nc(-c3ccc(N4CCOCC4)nc3)cc(-c3cccc(Br)c3)c12` [ABT-702] the “cardiac fibroblast cell death by conditioned medium of cardiomyocytes treated with AMP plus inhibitor” value (cardiac fibroblasts [1]) was “attenuated cell death”.

With `Nc1ncnc2c1ncn2[C@@H]1O[C@H](COP(=O)(O)O)[C@@H](O)[C@H]1O` [AMP, Adenosine monophosphate] the “cell death of cardiac fibroblasts treated directly with the substance(s)” value (“cell death … with the substance(s)” for short) (cardiac fibroblasts [2]) was “did not induce cell death” and the “cardiac fibroblast cell death by conditioned medium of cardiomyocytes treated with the substance alone” value (cardiac fibroblasts [1]) was “caused cell death”.

In the case of `Nc1ncnc2c1ncn2[C@@H]1O[C@H](COP(=O)(O)CP(=O)(O)O)[C@@H](O)[C@H]1O` [AMP-CP], the “cardiac fibroblast cell death by conditioned medium of cardiomyocytes treated with AMP plus inhibitor” value (cardiac fibroblasts [1]) is reported as “significantly increases cardiac fibroblast cell death”.

With `Nc1ncnc2c1ncn2[C@@H]1O[C@H](COP(=O)(O)OP(=O)(O)OP(=O)(O)O)[C@@H](O)[C@H]1O` [ATP] the “reduction in the number of ENPP1 over-expressing cardiac fibroblasts” value ([3]; ATP added to co-culture with neonatal rat ventricular cardiomyocytes, within 48 hours) was 75%.

For `COc1ccc(-c2nc([C@@H](C)Sc3nc(N)cc(N)n3)c(C)s2)cc1OCCN1CCOCC1` [DI-87], the “rescue by deoxycytidine of ENPP1+ATP conditioned medium induced cell death in presence of deoxycytidine kinase inhibitor” value (cardiac fibroblasts [4]) was “unable to prevent cell death”.

`CCNC(=O)[C@H]1O[C@@H](n2cnc3c(N)ncnc32)[C@H](O)[C@@H]1O` [NECA] was tested, and the “cardiac fibroblast cell death by conditioned medium of cardiomyocytes treated with the substance alone” value (cardiac fibroblasts [1]) was “did not cause fibroblast cell death”.

With `O=C(O)c1cc(=O)[nH]c(=O)n1[C@@H]1O[C@H](COP(=O)(O)O)[C@@H](O)[C@H]1O` [OMP, orotidine monophosphate] the “cell death of cardiac fibroblasts treated with adenine and adenosine plus the substance” value (cardiac fibroblasts [2]) was “rescue of cell death” and the “cell death of cardiac fibroblasts treated with ENPP1+ATP myocyte conditioned medium in presence of the substance” value (shortened to “cell death … of the substance”) (cardiac fibroblasts [4]) was “completely rescued cell death”.

In the case of `O=P(O)(O)OP(=O)(O)O` [PPi, pyrophosphate], the “cardiac fibroblast cell death by conditioned medium of cardiomyocytes treated with the substance alone” value (cardiac fibroblasts [1]) is reported as “not”.

`Nc1ncnc2nc[nH]c12` [adenine, Adenine] was tested, and the “cell death of cardiac fibroblasts after removal of the compound from the set of 7 compounds” value (cardiac fibroblasts [2]) was “no cell death” and the “cell death … with the substance(s)” value (cardiac fibroblasts [2]) was “no cell death was observed”.

For `Nc1ncnc2c1ncn2[C@@H]1O[C@H](CO)[C@@H](O)[C@H]1O` [adenosine, Adenosine], the “cardiac fibroblast cell death by conditioned medium of cardiomyocytes treated with the substance alone” value (cardiac fibroblasts [1]) was “unable to induce cell death”.

In the case of `Cc1c(-c2ccc(-c3ccccc3F)cc2)nc2ccc(F)cc2c1C(=O)O` [brequinar], the “cell death … with the substance(s)” value (cardiac fibroblasts [2]) is reported as “cardiac fibroblast cell death”.

For `Nc1ccn([C@H]2C[C@H](O)[C@@H](CO)O2)c(=O)n1` [deoxycytidine], the “cell death … of the substance” value (cardiac fibroblasts [4]) was “completely rescued cell death”.

With `CO[C@@]12[C@H](COC(N)=O)C3=C(C(=O)C(C)=C(N)C3=O)N1C[C@@H]1N[C@@H]12` [mitomycin C] the “cell death of mEF treated with ENPP1+ATP myocyte conditioned medium after cell cycle arrest” value [5] was “prevented cell death” and the “cell death … of the substance” value (cardiac fibroblasts [4]) was “resistant to cell death”.

In the case of `O=c1c(O)c(-c2cc(O)c(O)c(O)c2)oc2cc(O)cc(O)c12` [myricetin], the “fraction of animals with severe fibrosis (>40% of the LV surface area)” value [6, 8] is reported as 15%, the “fraction of animals with severe heart failure (EF<20%)” value [6, 8] is reported as 23% and the “LVIDs (ventricular chamber size)” value [6, 9] is reported as 3.68±0.23. For the same compound, the ejection fraction [6, 9] was 38.04±3.74%, the fractional shortening [6, 9] was 18.67±2.05% and the body weight ([6]; mouse, in vivo) was “without any change”. The capillary density ([6]; myricetin, versus vehicle) was “significant increase”, the ventricular hypertrophy ([6]; myricetin, versus vehicle) was “decreased” and the “area of scarring at the mid ventricular and apical regions” value ([6]; myricetin, 4 weeks post injury, versus vehicle) was “significantly reduced”. The “cell death of cardiac fibroblasts in co-culture after addition of ATP” value ([3]; concomitant addition of myricetin (10 uM)) was “significantly attenuated cell death”, the “inhibition of ENPP1 enzymatic activity” value (ENPP1) was about 99% and the “carbamoyl aspartate in the hearts” value (pyrimidine biosynthesis; myricetin versus vehicle injected animals (FIG. 8K legend)) was “decreased”. For the same compound, the “carbamoyl phosphate levels in the injured regions of the heart” value (pyrimidine biosynthesis; [10]) was “decrease”, the “level of cytidine in the injured regions of the heart” value (pyrimidine biosynthesis; [10]) was “significant increase” and the “level of uridine in the injured regions of the heart” value (pyrimidine biosynthesis; [10]) was “significant increase”. The deoxyuridine in serum (pyrimidine biosynthesis; [11]) was “increased”, the orotate in serum (pyrimidine biosynthesis; [11]) was “decrease” and the orotidine in serum (pyrimidine biosynthesis; myricetin versus vehicle, day 7) was “increased”. For the same compound, the “p53Ser15 phosphorylation in non-myocyte cells” value [7] was “attenuated”, the “expression of gamma H2A.X in non-myocyte cells” value ([7]; 7 days following injury) was “attenuated expression” and the “cardiac fibroblast cell death with conditioned medium of cardiomyocytes treated with ENPP1+ATP plus substance, versus ENPP1+ATP conditioned medium” value (cardiac fibroblasts [1]) was “significant reduction in cell death”.

In the case of `O=c1ccn([C@@H]2O[C@H](CO)[C@@H](O)[C@H]2O)c(=O)[nH]1` [uridine, Uridine], the “animals with severe post infarct fibrosis (>40% of LV surface area)” value [6, 12] is reported as “none”, the “fraction of animals with severe depression in EF (less than 20%)” value [6, 12] is reported as 13% and the “end systolic ventricular diameters” value ([6]; uridine continuous infusion for 14 days, versus vehicle) is reported as “trend towards better preservation”. The “ejection fraction (EF)” value [6, 13] was 37.02±3.12%, the “fractional shortening (FS)” value [6, 13] was 18.01±1.68% and the “heart weight/body weight ratios” value ([6]; uridine, versus vehicle) was “decreased”. The capillary density ([6]; uridine, 4 weeks following injury) was “significantly increased”, the “fibrosis measured at the apex and mid ventricle” value ([6]; uridine, 4 weeks post injury, versus vehicle) was “decreased fibrosis” and the “cell death of cardiac fibroblasts treated with adenine and adenosine plus the substance” value (cardiac fibroblasts [2]) was “rescue of cell death”. For the same compound, the “cell death of cardiac fibroblasts treated with brequinar plus uridine” value (cardiac fibroblasts [2]) was “rescue”, the “cell death of cardiac fibroblasts treated with the 7 compounds together with uridine” value (cardiac fibroblasts [2]) was “cell death was prevented” and the “cell death … of the substance” value (cardiac fibroblasts [4]) was “completely rescued cell death”.
